Results from patent publication US20110094885A1, “Flexible Drug Delivery Chip, its Fabrication Method and Uses Thereof” (NATIONAL CHIAO TUNG UNIVERSITY, priority 2009, published 2011).

Tested on: spontaneous SWDs
Assay: Spontaneous spike-wave discharges (SWDs) in Long-Evans rats
Assay type: in vivo
Settings: 0.5 ml, 28 mg/kg, i.p.; vs saline; n=8
Description: All rats were kept in a sound-attenuated room under a 12:12 hour light-dark cycle (07:00-19:00 lights on) with food and water provided ad libitum. The experimental procedures were reviewed and approved by the Institutional Animal Care and Use Committee. Briefly, the recording electrodes were implanted under pentobarbital anesthesia (60 mg/kg, i.p.). Subsequently, the rat was placed in a standard stereotaxic apparatus. In total, six stainless steel screws were driven bilaterally into the skull overlying the frontal (A +2.0, L 2.0 with reference to the bregma) and occipital (A −6.0, L 2.0) regions of the cortex to record cortical field potentials. A ground electrode was implanted 2 mm caudal to lambda. Dental cement was applied to fasten the connection socket to the surface of the skull. Following suturing to complete the surgery, animals were given an antibiotic (chlortetracycline) and housed individually in cages for recovery. […] In this preliminary animal test, we compared effect among saline, ethosuximide (ESM), ESM-loaded nanoparticles (ESM-Fe3O4@SiO2) and ESM-containing chip (ESM-Chip) in spontaneous SWDs of Long-Evans rats. […] In this experiment, we recorded 1-hour spontaneous brain activity before the treatment (baseline) and another 1-hour spontaneous brain activity 30 minutes after the treatment. […]

CCC1(C)CC(=O)NC1=O (centres unmarked) [ESM, ethosuximide]
SWD number: significantly decreased
total SWD duration: significantly decreased
